Measured values taken from ChEMBL document CHEMBL1158456, “Synergistic effect of zanamivir-porphyrin conjugates on inhibition of neuraminidase and inactivation of influenza virus” (J Med Chem, 2009).
Activity calls are given as the source filed them. No cut-off for these calls is given here.

How the values were obtained:
Neuraminidase [1] = molecular target: T1, Neuraminidase (Influenza A virus, UniProt B4URF0); experiment: Inhibition of influenza A virus A/Vietnam/1194/2004 H5N1 neuraminidase using NA-STAR substrate after 15 mins incubation at room temperature by fluorescent assay
Neuraminidase [2] = molecular target: T1, Neuraminidase; experiment: Inhibition of influenza A virus A/WSN/1933 H1N1 neuraminidase using NA-STAR substrate after 15 mins incubation at room temperature by fluorescent assay
Influenza A virus [3] = experiment: Antiviral activity against influenza A virus A/WSN/1933 H1N1 infected in MDCK cells assessed as reduction of infectious viral titer at 100 nM incubated for 1 hr under laminar flow hood light before infection measured after 3 days; type: functional, organism-based
Influenza A virus [4] = experiment: Antiviral activity against influenza A virus A/WSN/1933 H1N1 infected in MDCK cells assessed as reduction of infectious viral titer at 500 nM incubated for 1 hr under laminar flow hood light before infection measured after 3 days; type: functional, organism-based
[5] = system: Influenza A virus (A/Vietnam/1194/2004(H5N1)); experiment: Binding affinity to influenza A virus A/Vietnam/1194/2004 H5N1 hemagglutininin to alpha-2,3-sialic acid galactosyl oligomers
Influenza A virus [6] = experiment: Antiviral activity against influenza A virus A/Vietnam/1194/2004 H5N1 infected in MDCK cells assessed as protection against virus-induced cytopathic effect after 48 hrs; type: functional, organism-based
Influenza A virus [7] = experiment: Inhibition of influenza A virus A/WSN/1933 H1N1-induced hemagglutinination of chicken RBC; type: functional, organism-based
Influenza A virus [8] = experiment: Antiviral activity against influenza A virus A/WSN/1933 H1N1 infected in MDCK cells assessed as protection against virus-induced cytopathic effect after 48 hrs; type: functional, organism-based
Influenza A virus [9] = experiment: Antiviral activity against influenza A virus A/WSN/1933 H1N1 infected in MDCK cells after 3 days by plaque reduction assay; type: functional, organism-based; settings: 72 h
Influenza A virus [10] = experiment: Antiviral activity against influenza A virus A/WSN/1933 H1N1 infected in MDCK cells assessed as reduction of infectious viral titer at 40 nM incubated for 1 hr measured after 3 days relative to control; type: functional; set-up: scale not given: the % may be the effect or the level left
Influenza A virus [11] = experiment: Antiviral activity against influenza A virus A/WSN/1933 H1N1 infected in MDCK cells assessed as reduction of infectious viral titer at 500 nM incubated for 1 hr under laminar flow hood light before infection measured after 3 days in presence of 10 fold excess zanamivir; type: functional, organism-based
Influenza A virus [12] = experiment: Antiviral activity against influenza A virus A/WSN/1933 H1N1 infected in MDCK cells assessed as reduction of infectious viral titer at 200 nM incubated for 1 hr measured after 3 days; type: functional; set-up: scale not given: the % may be the effect or the level left
Influenza A virus [13] = experiment: Antiviral activity against influenza A virus A/WSN/1933 H1N1 infected in MDCK cells assessed as reduction of infectious viral titer at 0.4 to 10 uM incubated for 1 hr measured after 3 days relative to control; type: functional; set-up: scale not given: the % may be the effect or the level left
Influenza A virus [14] = experiment: Antiviral activity against influenza A virus A/WSN/1933 H1N1 infected in MDCK cells assessed as reduction of infectious viral titer incubated for 1 hr measured after 3 days; type: functional, organism-based
Influenza A virus [15] = experiment: Antiviral activity against influenza A virus A/WSN/1933 H1N1 infected in MDCK cells assessed as reduction of infectious viral titer at 100 nM incubated for 1 hr under laminar flow hood light before infection measured after 3 days in presence of 10 fold excess zanamivir; type: functional, organism-based
Influenza A virus [16] = experiment: Ratio of EC50 for drug to EC50 for zanamivir against influenza A virus A/Vietnam/1194/2004 H5N1 by plaque reduction assay; type: functional
[17] = molecular target: Neuraminidase (Influenza A virus) (UniProt B4URF0); experiment: Inhibition of influenza A virus A/WSN/1933 H1N1 neuraminidase at 40 nM using NA-STAR substrate after 15 mins incubation at room temperature by fluorescent assay relative to control
Influenza A virus [18] = experiment: Antiviral activity against influenza A virus A/Vietnam/1194/2004 H5N1 infected in MDCK cells after 3 days by plaque reduction assay; type: functional, organism-based; settings: 72 h
[19] = molecular target: Neuraminidase (Influenza A virus) (UniProt B4URF0); experiment: Inhibition of influenza A virus A/WSN/1933 H1N1 neuraminidase at 10 nM using NA-STAR substrate after 15 mins incubation at room temperature by fluorescent assay relative to control
[20] = molecular target: Neuraminidase (Influenza A virus) (UniProt B4URF0); experiment: Inhibition of influenza A virus A/Vietnam/1194/2004 H5N1 neuraminidase at 40 nM using NA-STAR substrate after 15 mins incubation at room temperature by fluorescent assay relative to control
[21] = molecular target: Neuraminidase (Influenza A virus) (UniProt B4URF0); experiment: Inhibition of influenza A virus A/Vietnam/1194/2004 H5N1 neuraminidase at 10 nM using NA-STAR substrate after 15 mins incubation at room temperature by fluorescent assay relative to control

Sequence of Neuraminidase (Influenza A virus) (B4URF0 as listed by the source): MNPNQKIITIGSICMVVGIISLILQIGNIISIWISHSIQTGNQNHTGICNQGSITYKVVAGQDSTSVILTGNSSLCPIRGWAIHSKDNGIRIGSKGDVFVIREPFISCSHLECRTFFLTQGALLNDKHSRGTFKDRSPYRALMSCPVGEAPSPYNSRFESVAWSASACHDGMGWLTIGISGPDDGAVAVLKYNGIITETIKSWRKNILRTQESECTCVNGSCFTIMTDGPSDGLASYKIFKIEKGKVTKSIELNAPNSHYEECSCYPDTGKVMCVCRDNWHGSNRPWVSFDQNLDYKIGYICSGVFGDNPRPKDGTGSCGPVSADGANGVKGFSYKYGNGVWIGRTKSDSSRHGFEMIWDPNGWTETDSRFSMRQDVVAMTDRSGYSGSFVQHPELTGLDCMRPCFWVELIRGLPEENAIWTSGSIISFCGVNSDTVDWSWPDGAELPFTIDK
T1 sequence (B4URF0 whole entry): as the sequence (B4URF0 as listed by the source) above

SMILES | IC50 (Neuraminidase [2]) [nM] | Activity (Influenza A virus [3]) | Activity (Influenza A virus [4]) | Activity [5] | Activity (Influenza A virus [6]) | Activity (Influenza A virus [7]) | Activity (Influenza A virus [8]) | EC50 (Influenza A virus [9]) [nM] | other results
CC(=O)N[C@H]1[C@H]([C@H](OC(=O)NCc2cn(CCOCCOCCOCCOCCNC(=O)COc3ccc(-c4c5nc(c(-c6ccc(OCC(=O)NCCOCCOCCOCCOCCn7cc(CNC(=O)O[C@@H]([C@@H]8OC(C(=O)O)=C[C@H](N=C(N)N)[C@H]8NC(C)=O)[C@H](O)CO)nn7)cc6)c6ccc([nH]6)c(-c6ccc(OCC(=O)NCCOCCOCCOCCOCCn7cc(CNC(=O)O[C@@H]([C@@H]8OC(C(=O)O)=C[C@H](N=C(N)N)[C@H]8NC(C)=O)[C@@H](O)CO)nn7)cc6)c6nc(c(-c7ccc(OCC(=O)NCCOCCOCCOCCOCCn8cc(CNC(=O)O[C@@H]([C@@H]9OC(C(=O)O)=C[C@H](N=C(N)N)[C@H]9NC(C)=O)[C@H](O)CO)nn8)cc7)c7ccc4[nH]7)C=C6)C=C5)cc3)nn2)[C@H](O)CO)OC(C(=O)O)=C[C@@H]1N=C(N)N | 3.7 | – | – | – | – | – | – | – | IC50 (Neuraminidase [1]): 7.6 nM
CC(=O)N[C@H]1[C@H]([C@H](OC(=O)NCc2cn(CCOCOc3ccc(-c4c5nc(c(-c6ccc(OCOCCn7cc(CNC(=O)O[C@@H]([C@@H]8OC(C(=O)O)=C[C@H](N=C(N)N)[C@H]8NC(C)=O)[C@H](O)CO)nn7)cc6)c6ccc([nH]6)c(-c6ccc(OCOCCn7cc(CNC(=O)O[C@@H]([C@@H]8OC(C(=O)O)=C[C@H](N=C(N)N)[C@H]8NC(C)=O)[C@H](O)CO)nn7)cc6)c6nc(c(-c7ccc(OCOCCn8cc(CNC(=O)O[C@@H]([C@@H]9OC(C(=O)O)=C[C@H](N=C(N)N)[C@H]9NC(C)=O)[C@H](O)CO)nn8)cc7)c7ccc4[nH]7)C=C6)C=C5)cc3)nn2)[C@H](O)CO)OC(C(=O)O)=C[C@@H]1N=C(N)N | 11 | – | – | – | – | – | – | – | –
CC(=O)N[C@H]1[C@H]([C@H](OC(=O)NCc2cn(CCOCCOCCOCCNC(=O)COc3ccc(-c4c5nc(c(-c6ccc(OCC(=O)NCCOCCOCCOCCn7cc(CNC(=O)O[C@@H]([C@@H]8OC(C(=O)O)=C[C@H](N=C(N)N)[C@H]8NC(C)=O)[C@H](O)CO)nn7)cc6)c6ccc([nH]6)c(-c6ccc(OCC(=O)NCCOCCOCCOCCn7cc(CNC(=O)O[C@@H]([C@@H]8OC(C(=O)O)=C[C@H](N=C(N)N)[C@H]8NC(C)=O)[C@H](O)CO)nn7)cc6)c6nc(c(-c7ccc(OCC(=O)NCCOCCOCCOCCn8cc(CNC(=O)O[C@@H]([C@@H]9OC(C(=O)O)=C[C@H](N=C(N)N)[C@H]9NC(C)=O)[C@H](O)CO)nn8)cc7)c7ccc4[nH]7)C=C6)C=C5)cc3)nn2)[C@H](O)CO)OC(C(=O)O)=C[C@@H]1N=C(N)N | 8.5 | – | – | – | – | – | – | – | IC50 (Neuraminidase [1]): 16 nM
Oc1ccc(-c2c3nc(c(-c4ccc(O)cc4)c4ccc([nH]4)c(-c4ccc(O)cc4)c4nc(c(-c5ccc(O)cc5)c5ccc2[nH]5)C=C4)C=C3)cc1 | – | inactive | inactive | – | – | – | – | – | –
CC(=O)N[C@H]1[C@H]([C@H](OC(=O)NCc2cn(CCOCCOCCOCCNC(=O)COc3ccc(-c4c5nc(c(-c6ccc(OCC(=O)NCCOCCOCCOCCn7cc(CNC(=O)O[C@@H]([C@@H]8OC(C(=O)O)=C[C@H](NC(=N)N)[C@H]8NC(C)=O)[C@H](O)CO)nn7)cc6)c6ccc([nH]6)c(-c6ccc(OCC(=O)NCCOCCOCCOCCn7cc(CNC(=O)O[C@@H]([C@@H]8OC(C(=O)O)=C[C@H](NC(=N)N)[C@H]8NC(C)=O)[C@H](O)CO)nn7)cc6)c6nc(c(-c7ccc(OCC(=O)NCCOCCOCCOCCn8cc(CNC(=O)O[C@@H]([C@@H]9OC(C(=O)O)=C[C@H](NC(=N)N)[C@H]9NC(C)=O)[C@H](O)CO)nn8)cc7)c7ccc4[nH]7)C=C6)C=C5)cc3)nn2)[C@H](O)CO)OC(C(=O)O)=C[C@@H]1NC(=N)N | – | – | – | inactive | Active | inactive | Active | 0.5 | –
CC(=O)N[C@H]1[C@H]([C@H](OC(=O)NCc2cn(CCOCCOCCOCCOCCNC(=O)COc3ccc(-c4c5nc(c(-c6ccc(OCC(=O)NCCOCCOCCOCCOCCn7cc(CNC(=O)O[C@@H]([C@@H]8OC(C(=O)O)=C[C@H](NC(=N)N)[C@H]8NC(C)=O)[C@H](O)CO)nn7)cc6)c6ccc([nH]6)c(-c6ccc(OCC(=O)NCCOCCOCCOCCOCCn7cc(CNC(=O)O[C@@H]([C@@H]8OC(C(=O)O)=C[C@H](NC(=N)N)[C@H]8NC(C)=O)[C@@H](O)CO)nn7)cc6)c6nc(c(-c7ccc(OCC(=O)NCCOCCOCCOCCOCCn8cc(CNC(=O)O[C@@H]([C@@H]9OC(C(=O)O)=C[C@H](NC(=N)N)[C@H]9NC(C)=O)[C@H](O)CO)nn8)cc7)c7ccc4[nH]7)C=C6)C=C5)cc3)nn2)[C@H](O)CO)OC(C(=O)O)=C[C@@H]1NC(=N)N | – | Active | Active | inactive | Active | inactive | Active | 0.1 | Activity (Influenza A virus [10]): <20%; Activity (Influenza A virus [11]): inactive; Activity (Influenza A virus [12]): >95%; Activity (Influenza A virus [13]): 60%; Activity (Influenza A virus [14]): Dose-dependent effect; Activity (Influenza A virus [15]): inactive
CC(=O)N[C@H]1[C@H]([C@H](OC(=O)NCc2cn(CCOCOc3ccc(-c4c5nc(c(-c6ccc(OCOCCn7cc(CNC(=O)O[C@@H]([C@@H]8OC(C(=O)O)=C[C@H](NC(=N)N)[C@H]8NC(C)=O)[C@H](O)CO)nn7)cc6)c6ccc([nH]6)c(-c6ccc(OCOCCn7cc(CNC(=O)O[C@@H]([C@@H]8OC(C(=O)O)=C[C@H](NC(=N)N)[C@H]8NC(C)=O)[C@H](O)CO)nn7)cc6)c6nc(c(-c7ccc(OCOCCn8cc(CNC(=O)O[C@@H]([C@@H]9OC(C(=O)O)=C[C@H](NC(=N)N)[C@H]9NC(C)=O)[C@H](O)CO)nn8)cc7)c7ccc4[nH]7)C=C6)C=C5)cc3)nn2)[C@H](O)CO)OC(C(=O)O)=C[C@@H]1NC(=N)N | – | – | – | inactive | Active | inactive | Active | 2 | Ratio EC50 (Influenza A virus [16]): 55; inhibition [17]: 51%; EC50 (Influenza A virus [18]): 11 nM; inhibition [19]: 24%; inhibition [20]: 51%; inhibition [21]: 24%
CC(=O)N[C@H]1[C@H]([C@H](O)[C@H](O)CO)OC(C(=O)O)=C[C@@H]1NC(=N)N [ZANAMIVIR] | – | inactive | inactive | – | – | – | – | 11 | EC50 (Influenza A virus [18]): 613 nM
